From ChEMBL document CHEMBL3526031, “Mechanistic studies on the absorption and disposition of scutellarin in humans: selective OATP2B1-mediated hepatic uptake is a likely key determinant for its unique pharmacokinetic characteristics” (Drug Metab Dispos, 2012) come the findings set out here.

Data set [1] concerns the target ATP-binding cassette sub-family C member 2 (Homo sapiens, UniProt Q92887). Nature of the data set: Drug uptake assessed as human MRP2-mediated drug transport using inside-out membrane vesicles by measuring +ATP/-ATP ratio by LC-MS/MS analysis. The data set is classed as ADME.
The target of a further data set is T1, OATP2B1 (Homo sapiens, UniProt O94956).
T1 sequence (O94956 whole entry): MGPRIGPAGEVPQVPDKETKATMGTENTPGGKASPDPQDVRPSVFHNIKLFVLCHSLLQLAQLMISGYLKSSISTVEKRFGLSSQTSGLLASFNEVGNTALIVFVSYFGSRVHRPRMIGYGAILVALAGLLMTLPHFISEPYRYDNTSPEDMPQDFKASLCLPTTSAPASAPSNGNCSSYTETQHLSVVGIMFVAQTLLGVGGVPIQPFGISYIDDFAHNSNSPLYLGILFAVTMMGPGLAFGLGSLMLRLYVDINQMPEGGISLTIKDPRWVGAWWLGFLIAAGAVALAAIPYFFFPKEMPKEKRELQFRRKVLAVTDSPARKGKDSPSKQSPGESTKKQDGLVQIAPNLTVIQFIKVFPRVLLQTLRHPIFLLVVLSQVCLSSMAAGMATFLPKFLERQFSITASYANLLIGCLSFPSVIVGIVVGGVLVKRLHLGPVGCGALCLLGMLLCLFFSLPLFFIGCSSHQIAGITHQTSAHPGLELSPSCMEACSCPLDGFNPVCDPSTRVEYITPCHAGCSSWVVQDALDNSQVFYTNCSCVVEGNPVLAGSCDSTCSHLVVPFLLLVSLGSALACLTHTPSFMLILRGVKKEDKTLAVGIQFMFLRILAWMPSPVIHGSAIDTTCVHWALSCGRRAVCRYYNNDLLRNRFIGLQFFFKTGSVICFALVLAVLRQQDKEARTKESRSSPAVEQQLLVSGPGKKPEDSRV
Nature of the data set: (§1) Drug uptake assessed as OATP2B1 (unknown origin)-mediated drug transport expressed in HEK293 cells after 7 mins by LC-MS/MS analysis. The conditions noted are these: human, HEK293 cells expressing OATP2B1. In kind it is ADME, cell-based.

Data set [2] concerns the target T2, Solute carrier organic anion transporter family member 2B1 (Homo sapiens, UniProt O94956).
T2 sequence (O94956 whole entry): T1 sequence (O94956 whole entry)
The description is as §1. In kind it is ADME, cell-based.

The target in data set [3] is T2, Solute carrier organic anion transporter family member 2B1. Briefly: Ratio of Vmax to Km for drug uptake assessed as OATP2B1 (unknown origin)-mediated drug transport expressed in HEK293 cells by LC-MS/MS analysis. The data set is classed as ADME, cell-based.
A further data set has as its target Liver microsome. Briefly: Drug metabolism in rat liver microsomes assessed as formation of scutellarein-6,7-diglucuronide after 7 mins by HPLC/UV analysis. In kind it is ADME. The conditions noted are these: for Km / Vmax: rat, microsomes, 7 min. (Liver microsomes are a subcellular fraction often used to study metabolism.)
Data set [4] deals with Multidrug resistance-associated protein 1 (Homo sapiens, UniProt P33527). Nature of the data set: Inhibition of human MRP1-mediated estradiol-17beta-D-glucuronide formation using inside-out membrane vesicles by LC-MS/MS analysis.
Chain of Multidrug resistance-associated protein 1 (P33527 whole entry): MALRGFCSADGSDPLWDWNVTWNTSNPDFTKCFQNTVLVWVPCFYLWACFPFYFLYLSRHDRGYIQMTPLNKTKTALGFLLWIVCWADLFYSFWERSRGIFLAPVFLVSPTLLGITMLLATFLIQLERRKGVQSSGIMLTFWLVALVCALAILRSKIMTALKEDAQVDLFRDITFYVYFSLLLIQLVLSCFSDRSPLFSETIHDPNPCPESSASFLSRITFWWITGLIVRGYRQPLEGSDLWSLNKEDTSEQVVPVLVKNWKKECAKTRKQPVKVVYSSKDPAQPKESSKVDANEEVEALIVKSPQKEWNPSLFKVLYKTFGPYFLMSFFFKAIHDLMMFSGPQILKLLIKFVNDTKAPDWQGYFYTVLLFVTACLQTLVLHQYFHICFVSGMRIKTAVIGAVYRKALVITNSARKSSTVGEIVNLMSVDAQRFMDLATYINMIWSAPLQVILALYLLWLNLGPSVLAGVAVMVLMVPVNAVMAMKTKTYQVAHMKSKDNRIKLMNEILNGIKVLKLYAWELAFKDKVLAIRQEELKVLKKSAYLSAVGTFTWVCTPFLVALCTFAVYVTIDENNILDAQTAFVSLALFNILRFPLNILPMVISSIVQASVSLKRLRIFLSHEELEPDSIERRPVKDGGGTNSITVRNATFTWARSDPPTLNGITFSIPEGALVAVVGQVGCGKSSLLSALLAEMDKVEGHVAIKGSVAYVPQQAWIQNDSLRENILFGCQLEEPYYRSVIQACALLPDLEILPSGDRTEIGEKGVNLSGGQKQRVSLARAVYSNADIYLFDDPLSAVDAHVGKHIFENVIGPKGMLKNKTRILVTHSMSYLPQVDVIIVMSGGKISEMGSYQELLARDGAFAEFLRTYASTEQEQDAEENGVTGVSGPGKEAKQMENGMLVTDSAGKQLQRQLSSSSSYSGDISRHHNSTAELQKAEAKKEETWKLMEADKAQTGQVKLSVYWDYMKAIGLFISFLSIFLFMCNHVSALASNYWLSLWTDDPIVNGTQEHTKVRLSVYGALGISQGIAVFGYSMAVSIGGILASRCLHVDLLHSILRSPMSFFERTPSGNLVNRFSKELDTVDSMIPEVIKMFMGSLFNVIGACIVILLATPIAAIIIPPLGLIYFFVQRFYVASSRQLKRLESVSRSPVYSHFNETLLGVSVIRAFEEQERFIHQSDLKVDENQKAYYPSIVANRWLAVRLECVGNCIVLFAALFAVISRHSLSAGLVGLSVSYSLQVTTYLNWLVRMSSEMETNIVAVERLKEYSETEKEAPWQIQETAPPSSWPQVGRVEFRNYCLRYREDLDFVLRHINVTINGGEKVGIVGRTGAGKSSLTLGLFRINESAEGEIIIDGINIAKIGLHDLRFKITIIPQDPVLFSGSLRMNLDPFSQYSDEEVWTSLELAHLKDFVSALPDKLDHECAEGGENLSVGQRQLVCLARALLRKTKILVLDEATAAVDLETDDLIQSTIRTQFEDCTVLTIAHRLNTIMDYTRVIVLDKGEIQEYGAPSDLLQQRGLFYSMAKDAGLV
Data set [5] can be described thus: Cmax in human at 60 mg, po. In kind it is ADME, organism-based. Set-up: dose 60 mg, route oral. The conditions noted are these: in vivo.
Data set [6] concerns the target T3, UDP-glucuronosyltransferase 1A8 (Homo sapiens, UniProt Q9HAW9).
T3 sequence (Q9HAW9 whole entry): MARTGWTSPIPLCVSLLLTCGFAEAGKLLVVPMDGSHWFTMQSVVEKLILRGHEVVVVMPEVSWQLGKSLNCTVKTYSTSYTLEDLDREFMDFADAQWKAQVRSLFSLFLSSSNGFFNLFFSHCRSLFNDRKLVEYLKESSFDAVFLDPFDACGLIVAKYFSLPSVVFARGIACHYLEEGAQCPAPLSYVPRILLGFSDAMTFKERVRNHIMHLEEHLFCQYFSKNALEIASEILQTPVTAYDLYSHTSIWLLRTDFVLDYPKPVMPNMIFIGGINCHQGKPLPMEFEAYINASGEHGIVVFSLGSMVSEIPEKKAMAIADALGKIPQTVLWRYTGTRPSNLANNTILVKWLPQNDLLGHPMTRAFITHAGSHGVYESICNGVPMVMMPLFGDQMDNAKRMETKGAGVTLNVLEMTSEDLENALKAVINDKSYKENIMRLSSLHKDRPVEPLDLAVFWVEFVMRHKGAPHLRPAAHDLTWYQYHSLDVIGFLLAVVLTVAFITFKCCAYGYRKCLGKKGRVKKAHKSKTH
Briefly: Drug metabolism assessed as human recombinant UGT1A8-mediated formation of scutellarein-6,7-diglucuronide after 25 mins by HPLC/UV analysis. The data set is classed as ADME. The settings on record: recombinant enzyme.

Data set [7] has as its target T2, Solute carrier organic anion transporter family member 2B1. Nature of the data set: Drug uptake assessed as OATP2B1 (unknown origin)-mediated drug transport expressed in HEK293 cells by LC-MS/MS analysis. In kind it is ADME, cell-based.
For a further data set, the system named is Homo sapiens. Briefly: Drug level in human assessed as retention time treated with 40 mg, po of scutellarin measured up to 20 hrs by mass defect filter chromatogram analysis. The data set is classed as ADME, organism-based.
Data set [8] addresses T4, UDP-glucuronosyltransferase 1A10 (Homo sapiens, UniProt Q9HAW8).
T4 sequence (Q9HAW8 whole entry): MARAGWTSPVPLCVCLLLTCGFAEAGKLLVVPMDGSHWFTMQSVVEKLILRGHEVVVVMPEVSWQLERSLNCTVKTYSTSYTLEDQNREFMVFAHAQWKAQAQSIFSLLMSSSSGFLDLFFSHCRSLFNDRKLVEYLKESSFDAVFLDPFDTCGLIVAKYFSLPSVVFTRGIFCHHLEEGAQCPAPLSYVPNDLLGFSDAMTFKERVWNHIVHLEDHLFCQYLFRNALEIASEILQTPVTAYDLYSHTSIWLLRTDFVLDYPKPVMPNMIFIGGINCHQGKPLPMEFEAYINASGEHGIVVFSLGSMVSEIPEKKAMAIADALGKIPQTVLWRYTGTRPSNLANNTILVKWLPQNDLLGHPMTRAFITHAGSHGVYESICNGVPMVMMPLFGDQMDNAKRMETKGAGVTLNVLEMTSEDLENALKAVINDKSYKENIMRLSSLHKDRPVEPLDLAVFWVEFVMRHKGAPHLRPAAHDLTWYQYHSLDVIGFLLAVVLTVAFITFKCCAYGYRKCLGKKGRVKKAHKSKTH
Nature of the data set: Ratio of Vmax to Km for drug metabolism assessed as human recombinant UGT1A10-mediated formation of scutellarein-6,7-diglucuronide after 25 mins by HPLC/UV analysis. The data set is classed as ADME. The conditions noted are these: recombinant enzyme.

In data set [9] the target is T3, UDP-glucuronosyltransferase 1A8. Briefly: Ratio of Vmax to Km for drug metabolism assessed as human recombinant UGT1A8-mediated formation of scutellarein-6,7-diglucuronide after 25 mins by HPLC/UV analysis. The data set is classed as ADME. The conditions noted are these: recombinant enzyme.

Chain of ATP-binding cassette sub-family C member 2 (Q92887 whole entry): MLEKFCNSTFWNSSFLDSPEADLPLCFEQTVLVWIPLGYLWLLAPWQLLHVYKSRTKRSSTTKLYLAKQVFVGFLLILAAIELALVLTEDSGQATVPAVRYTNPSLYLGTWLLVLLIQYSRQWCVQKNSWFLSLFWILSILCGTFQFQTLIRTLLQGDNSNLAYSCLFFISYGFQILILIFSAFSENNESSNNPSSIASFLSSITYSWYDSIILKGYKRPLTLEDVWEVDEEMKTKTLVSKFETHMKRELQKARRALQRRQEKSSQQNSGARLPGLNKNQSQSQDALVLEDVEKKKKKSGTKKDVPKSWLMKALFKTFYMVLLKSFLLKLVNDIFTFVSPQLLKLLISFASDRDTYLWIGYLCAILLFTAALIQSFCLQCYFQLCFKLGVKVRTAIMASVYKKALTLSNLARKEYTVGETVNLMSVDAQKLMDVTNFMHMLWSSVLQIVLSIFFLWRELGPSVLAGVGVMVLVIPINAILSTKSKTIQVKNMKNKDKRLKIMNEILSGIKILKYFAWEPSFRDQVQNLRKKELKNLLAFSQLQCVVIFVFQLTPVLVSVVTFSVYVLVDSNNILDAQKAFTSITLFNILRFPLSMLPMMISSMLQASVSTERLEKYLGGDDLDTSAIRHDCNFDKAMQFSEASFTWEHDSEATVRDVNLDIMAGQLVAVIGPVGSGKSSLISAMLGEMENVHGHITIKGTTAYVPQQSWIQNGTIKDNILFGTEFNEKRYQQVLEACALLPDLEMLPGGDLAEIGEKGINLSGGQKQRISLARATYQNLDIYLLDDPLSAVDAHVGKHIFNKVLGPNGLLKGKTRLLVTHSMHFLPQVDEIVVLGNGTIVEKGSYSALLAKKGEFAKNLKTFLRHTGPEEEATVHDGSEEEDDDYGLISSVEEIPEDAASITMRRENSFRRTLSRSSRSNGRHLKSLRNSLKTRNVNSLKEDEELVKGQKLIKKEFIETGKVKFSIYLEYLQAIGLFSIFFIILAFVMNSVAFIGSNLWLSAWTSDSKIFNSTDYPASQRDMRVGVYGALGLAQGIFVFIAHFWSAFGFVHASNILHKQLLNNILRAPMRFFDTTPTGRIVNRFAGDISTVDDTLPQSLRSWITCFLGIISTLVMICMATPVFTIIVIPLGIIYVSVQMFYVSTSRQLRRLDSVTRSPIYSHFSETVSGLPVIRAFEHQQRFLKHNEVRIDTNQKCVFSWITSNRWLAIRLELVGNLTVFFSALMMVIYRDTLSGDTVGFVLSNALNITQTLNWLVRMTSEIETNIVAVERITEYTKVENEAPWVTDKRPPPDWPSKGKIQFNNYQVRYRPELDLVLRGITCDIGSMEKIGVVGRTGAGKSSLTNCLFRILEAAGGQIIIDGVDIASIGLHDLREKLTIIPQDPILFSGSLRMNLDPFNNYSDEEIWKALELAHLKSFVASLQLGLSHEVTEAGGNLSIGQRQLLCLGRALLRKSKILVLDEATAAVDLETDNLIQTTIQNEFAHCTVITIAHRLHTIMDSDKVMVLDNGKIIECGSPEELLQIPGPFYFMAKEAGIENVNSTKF

`O=C(O)[C@H]1O[C@@H](Oc2cc3oc(-c4ccc(O)cc4)cc(=O)c3c(O)c2O)[C@H](O)[C@@H](O)[C@@H]1O` [SCUTELLARIN]: in data set [1], the Ratio is 3.07. At OATP2B1, the Michaelis constant (Km) at 7 min was 43 µM. In [2], the inhibitory constant (Ki) came out at 25.9 µM. Also, in data set [2] (human, hek293, 7 min), the Vmax amounted to 113 pmol/min/mg. For the same compound, the Vmax/Km in data set [3] was found to be 11.1 µL/min/mg. Also, at Liver microsome, the inhibition constant Ki stood at 302 µM, the Michaelis-Menten constant (Km) worked out at 15.2 µM and the Vmax was 3.1 nmol/min/mg. Also, in data set [4], the “inhibition (INH)” value is reported as “Active”. The compound further showed a Cmax in data set [5] of less than 4 nM.

As to `O=C(O)[C@H]1O[C@@H](Oc2c(O)cc3oc(-c4ccc(O)cc4)cc(=O)c3c2O)[C@H](O)[C@@H](O)[C@@H]1O`, the Ratio in [1] is 3.07. Moreover, the maximum rate (Vmax) amounted to 0.465 nmol/min/mg in data set [6] and 1.94 nmol/min/mg in the data set on Liver microsome. Further, the Ki turned out to be 25.9 µM in data set [7] and 78.3 µM on Liver microsome. Besides, the Km in the data set on Liver microsome was found to be 21.2 µM. Further, in the data set on Homo sapiens, the Retention_time is given as 9.19 min. Also, the Vmax/Km was determined as 2.84 µL/min/mg in data set [8] and 7.96 µL/min/mg in [9]. In data set [4], the “inhibition (INH)” value is “Active”.

As usually defined, the Km is the substrate concentration at which the rate is half of its maximum. The Ki is the equilibrium dissociation constant of an inhibitor or competing ligand from its target. As a reminder, the Vmax is the rate approached at saturating substrate. A word on the Cmax: it is the highest concentration seen after dosing.
